Patent publication US10710978B2, “STK4 inhibitors for treatment of hematologic malignancies” (Dana-Farber Cancer Institute, Inc., priority 2015, dated 2020)
Values joined by “and” are separate entries in the source; they are usually repeats but may differ in a detail not shown here. Equal entries are not always repeated. Where two headings read alike, the source gives them in different places.

Tests used:
Assay in all cases: KiNativ assay
Type in all cases: binding
[1] = target: MAP3K1 (Homo sapiens (Human), UniProt Q13233); settings: H929 live cell
Chain of MAP3K1 (Q13233 whole entry): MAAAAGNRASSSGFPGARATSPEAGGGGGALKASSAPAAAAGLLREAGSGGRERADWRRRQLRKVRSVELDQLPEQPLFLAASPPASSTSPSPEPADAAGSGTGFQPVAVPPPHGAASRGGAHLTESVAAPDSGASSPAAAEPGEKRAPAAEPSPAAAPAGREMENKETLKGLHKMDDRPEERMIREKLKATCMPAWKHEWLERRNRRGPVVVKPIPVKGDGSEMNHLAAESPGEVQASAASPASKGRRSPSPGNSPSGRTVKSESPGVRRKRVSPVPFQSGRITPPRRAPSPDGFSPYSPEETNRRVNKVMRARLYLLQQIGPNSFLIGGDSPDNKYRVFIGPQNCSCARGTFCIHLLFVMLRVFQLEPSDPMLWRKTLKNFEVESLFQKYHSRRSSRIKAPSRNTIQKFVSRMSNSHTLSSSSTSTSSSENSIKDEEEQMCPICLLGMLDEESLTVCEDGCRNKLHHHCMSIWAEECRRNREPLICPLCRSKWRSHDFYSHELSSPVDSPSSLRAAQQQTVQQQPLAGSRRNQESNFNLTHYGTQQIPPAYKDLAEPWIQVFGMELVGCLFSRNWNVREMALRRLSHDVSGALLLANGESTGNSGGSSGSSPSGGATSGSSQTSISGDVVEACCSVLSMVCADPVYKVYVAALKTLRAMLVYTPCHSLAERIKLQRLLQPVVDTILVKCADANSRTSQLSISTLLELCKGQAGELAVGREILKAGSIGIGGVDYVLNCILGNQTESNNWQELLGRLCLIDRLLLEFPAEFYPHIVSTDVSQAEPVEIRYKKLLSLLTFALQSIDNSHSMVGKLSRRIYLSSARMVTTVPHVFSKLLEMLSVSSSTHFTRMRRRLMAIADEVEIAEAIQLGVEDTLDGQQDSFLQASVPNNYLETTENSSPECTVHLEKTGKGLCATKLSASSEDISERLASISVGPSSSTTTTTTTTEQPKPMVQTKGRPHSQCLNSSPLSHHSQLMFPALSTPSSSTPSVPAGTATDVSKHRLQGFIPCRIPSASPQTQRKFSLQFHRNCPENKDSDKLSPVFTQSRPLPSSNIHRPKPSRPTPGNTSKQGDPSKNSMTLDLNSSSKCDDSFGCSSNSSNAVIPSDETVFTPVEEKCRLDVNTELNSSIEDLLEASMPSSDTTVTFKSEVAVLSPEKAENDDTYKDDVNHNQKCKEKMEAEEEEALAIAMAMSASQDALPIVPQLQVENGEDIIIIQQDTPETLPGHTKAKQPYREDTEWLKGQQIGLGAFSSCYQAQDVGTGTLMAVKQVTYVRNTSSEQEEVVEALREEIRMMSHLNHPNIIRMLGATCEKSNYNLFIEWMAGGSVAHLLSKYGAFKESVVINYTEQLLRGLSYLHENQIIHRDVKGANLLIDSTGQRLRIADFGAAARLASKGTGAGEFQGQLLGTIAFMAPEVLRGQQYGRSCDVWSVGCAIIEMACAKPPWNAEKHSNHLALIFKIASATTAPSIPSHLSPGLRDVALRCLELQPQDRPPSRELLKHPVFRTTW
Method: (§1) Biochemical IC50s of the compounds of the present disclosure against various kinases were measured in a KiNativ assay. Compounds were screened in duplicate at 10 μM in H929 live cell. IC50 was measured via Mass spectroscopy (MS).

[2] = target: NuaK2 (Homo sapiens (Human), UniProt Q9H093); settings: H929 live cell
Method: as §1

[3] = target: MSK2 domain1 (Homo sapiens (Human), UniProt O75676); settings: H929 live cell
Method: as §1

[4] = target: PKCi (Homo sapiens (Human), UniProt P41743); settings: H929 live cell
Chain of PKCi (P41743 whole entry): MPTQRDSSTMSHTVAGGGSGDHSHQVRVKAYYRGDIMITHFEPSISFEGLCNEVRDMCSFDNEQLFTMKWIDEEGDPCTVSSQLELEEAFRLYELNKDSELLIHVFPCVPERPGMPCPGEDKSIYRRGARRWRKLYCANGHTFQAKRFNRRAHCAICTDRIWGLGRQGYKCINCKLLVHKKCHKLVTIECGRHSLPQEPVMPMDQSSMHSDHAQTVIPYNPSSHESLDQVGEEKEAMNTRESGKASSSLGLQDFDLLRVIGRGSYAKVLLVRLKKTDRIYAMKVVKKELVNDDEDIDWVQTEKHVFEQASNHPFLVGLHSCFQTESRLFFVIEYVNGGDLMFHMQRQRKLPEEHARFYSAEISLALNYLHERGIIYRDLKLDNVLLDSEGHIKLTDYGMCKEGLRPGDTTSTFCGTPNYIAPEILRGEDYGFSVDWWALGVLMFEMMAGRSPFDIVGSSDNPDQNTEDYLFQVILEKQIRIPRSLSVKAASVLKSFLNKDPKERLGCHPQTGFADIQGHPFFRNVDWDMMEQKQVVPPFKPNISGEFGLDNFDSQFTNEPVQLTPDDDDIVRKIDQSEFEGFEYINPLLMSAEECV
Method: as §1

[5] = test system: AMPKa1, AMPKa2; settings: H929 live cell
Method: as §1

[6] = target: BRAF (Homo sapiens (Human), UniProt P15056); settings: H929 live cell
Method: as §1

[7] = target: MST2 (Homo sapiens (Human), UniProt Q13188); settings: H929 live cell
Method: as §1

[8] = target: PKD2 (Homo sapiens (Human), UniProt Q9BZL6); settings: H929 live cell
Method: as §1

[9] = target: RSK1 domain2 (Homo sapiens (Human), UniProt Q15418); settings: H929 live cell
Method: as §1

[10] = target: STLK6 (Homo sapiens (Human), UniProt Q9C0K7); settings: H929 live cell
Method: as §1

[11] = target: SLK (Homo sapiens (Human), UniProt Q9H2G2); settings: H929 live cell
Method: as §1

[12] = target: MAST3 (Homo sapiens (Human), UniProt O60307); settings: H929 live cell
Method: as §1

[13] = target: LYN (Homo sapiens (Human), UniProt P07948); settings: H929 live cell
Method: as §1

[14] = test system: CDK11, CDK8; settings: H929 live cell
Method: as §1

[15] = target: MAP3K2 (Homo sapiens (Human), UniProt Q9Y2U5); settings: H929 live cell
Method: as §1

[16] = target: GCN2 domain2 (Homo sapiens (Human), UniProt Q9P2K8); settings: H929 live cell
Method: as §1

[17] = target: AKT1 (Homo sapiens (Human), UniProt P31749); settings: H929 live cell
Chain of AKT1 (P31749 whole entry): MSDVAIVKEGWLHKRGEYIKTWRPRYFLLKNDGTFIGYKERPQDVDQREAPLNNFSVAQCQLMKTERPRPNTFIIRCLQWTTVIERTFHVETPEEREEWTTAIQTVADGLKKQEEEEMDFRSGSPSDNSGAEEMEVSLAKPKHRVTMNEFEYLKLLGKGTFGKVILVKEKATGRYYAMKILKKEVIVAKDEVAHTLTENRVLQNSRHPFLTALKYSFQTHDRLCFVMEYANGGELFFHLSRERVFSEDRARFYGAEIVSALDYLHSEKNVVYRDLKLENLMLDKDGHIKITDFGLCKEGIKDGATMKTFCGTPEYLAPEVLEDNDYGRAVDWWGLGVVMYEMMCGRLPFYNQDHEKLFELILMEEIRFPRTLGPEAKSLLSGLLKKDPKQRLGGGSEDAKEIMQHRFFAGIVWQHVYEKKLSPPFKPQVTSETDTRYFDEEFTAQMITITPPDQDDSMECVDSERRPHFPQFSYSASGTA
Method: as §1

[18] = test system: PI4KA, PI4KAP2; settings: H929 live cell
Method: as §1

[19] = target: NEK7 (Homo sapiens (Human), UniProt Q8TDX7); settings: H929 live cell
Method: as §1

[20] = test system: MAP2K1, MAP2K2; settings: H929 live cell
Method: as §1

[21] = target: p38a (Homo sapiens (Human), UniProt Q16539); settings: H929 live cell, read-out: % inhibition (range)
Method: as §1

[22] = test system: ABL, ARG; settings: H929 live cell
Method: as §1

[23] = target: MAP2K1 (Homo sapiens (Human), UniProt Q02750); settings: H929 live cell
Chain of MAP2K1 (Q02750 whole entry): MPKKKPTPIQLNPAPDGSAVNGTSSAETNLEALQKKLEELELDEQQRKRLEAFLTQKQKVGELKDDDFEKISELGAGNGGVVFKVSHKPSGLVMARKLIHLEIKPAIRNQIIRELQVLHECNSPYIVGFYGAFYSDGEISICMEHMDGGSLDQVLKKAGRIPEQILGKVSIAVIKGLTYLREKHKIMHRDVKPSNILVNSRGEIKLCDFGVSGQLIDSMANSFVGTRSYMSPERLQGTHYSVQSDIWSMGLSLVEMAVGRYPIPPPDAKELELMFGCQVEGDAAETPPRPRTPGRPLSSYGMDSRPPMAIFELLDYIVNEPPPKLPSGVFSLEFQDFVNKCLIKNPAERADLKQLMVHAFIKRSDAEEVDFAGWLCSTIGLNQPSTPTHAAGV
Method: as §1

[24] = target: PKR (Homo sapiens (Human), UniProt P19525); settings: H929 live cell
Chain of PKR (P19525 whole entry): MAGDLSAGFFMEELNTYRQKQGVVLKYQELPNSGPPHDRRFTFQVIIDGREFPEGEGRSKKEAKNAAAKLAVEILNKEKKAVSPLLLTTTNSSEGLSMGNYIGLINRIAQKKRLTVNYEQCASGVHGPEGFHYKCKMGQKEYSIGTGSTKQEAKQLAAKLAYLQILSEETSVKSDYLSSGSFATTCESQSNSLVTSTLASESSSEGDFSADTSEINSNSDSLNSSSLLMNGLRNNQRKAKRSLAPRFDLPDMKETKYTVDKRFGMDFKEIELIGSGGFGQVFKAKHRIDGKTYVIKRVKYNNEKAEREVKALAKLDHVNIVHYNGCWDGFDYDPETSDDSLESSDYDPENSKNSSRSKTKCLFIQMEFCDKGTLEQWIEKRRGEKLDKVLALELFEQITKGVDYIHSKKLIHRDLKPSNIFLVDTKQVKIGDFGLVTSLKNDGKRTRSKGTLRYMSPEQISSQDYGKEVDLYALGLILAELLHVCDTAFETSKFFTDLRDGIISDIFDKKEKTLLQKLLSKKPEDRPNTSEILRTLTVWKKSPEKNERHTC
Method: as §1

[25] = target: p70S6Kb (Homo sapiens (Human), UniProt Q9UBS0); settings: H929 live cell
Method: as §1

[26] = target: MLKL (Homo sapiens (Human), UniProt Q8NB16); settings: H929 live cell
Method: as §1

[27] = target: AurB (Homo sapiens (Human), UniProt Q96GD4); settings: H929 live cell
Chain of AurB (Q96GD4 whole entry): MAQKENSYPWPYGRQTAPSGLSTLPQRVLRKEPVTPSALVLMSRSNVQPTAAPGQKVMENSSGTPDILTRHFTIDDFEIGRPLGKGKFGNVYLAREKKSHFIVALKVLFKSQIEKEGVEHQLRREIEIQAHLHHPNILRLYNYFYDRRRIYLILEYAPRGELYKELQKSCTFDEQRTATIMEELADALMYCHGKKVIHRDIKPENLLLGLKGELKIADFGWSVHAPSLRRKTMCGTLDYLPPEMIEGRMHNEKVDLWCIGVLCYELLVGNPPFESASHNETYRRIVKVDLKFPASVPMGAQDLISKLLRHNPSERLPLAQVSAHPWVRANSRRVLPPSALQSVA
Method: as §1

[28] = target: MLK3 (Homo sapiens (Human), UniProt Q16584); settings: H929 live cell
Method: as §1

[29] = target: CK1g3 (Homo sapiens (Human), UniProt Q9Y6M4); settings: H929 live cell
Method: as §1

[30] = target: IRAK4 (Homo sapiens (Human), UniProt Q9NWZ3); settings: H929 live cell
Method: as §1

[31] = target: CDK7 (Homo sapiens (Human), UniProt P50613); settings: H929 live cell
Chain of CDK7 (P50613 whole entry): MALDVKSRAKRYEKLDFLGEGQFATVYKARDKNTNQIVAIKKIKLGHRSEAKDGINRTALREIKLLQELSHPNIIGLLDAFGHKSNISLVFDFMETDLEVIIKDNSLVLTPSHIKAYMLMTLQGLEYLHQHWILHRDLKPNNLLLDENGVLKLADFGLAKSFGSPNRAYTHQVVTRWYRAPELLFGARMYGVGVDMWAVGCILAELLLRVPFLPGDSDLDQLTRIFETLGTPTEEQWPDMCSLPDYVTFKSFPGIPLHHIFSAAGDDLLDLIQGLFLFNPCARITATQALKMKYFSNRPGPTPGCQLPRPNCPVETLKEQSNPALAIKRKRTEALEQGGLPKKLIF
Chain of CDK7 (P51946 whole entry partner): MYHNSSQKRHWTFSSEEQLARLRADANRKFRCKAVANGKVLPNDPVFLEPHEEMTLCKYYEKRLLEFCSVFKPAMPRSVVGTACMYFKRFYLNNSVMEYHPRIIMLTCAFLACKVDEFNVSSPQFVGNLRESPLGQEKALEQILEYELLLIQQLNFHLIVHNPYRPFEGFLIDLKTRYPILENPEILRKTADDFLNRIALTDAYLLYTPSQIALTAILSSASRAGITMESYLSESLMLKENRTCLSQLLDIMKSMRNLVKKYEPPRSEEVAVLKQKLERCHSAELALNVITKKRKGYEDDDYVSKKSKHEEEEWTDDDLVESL
Chain of CDK7 (P51948 whole entry partner): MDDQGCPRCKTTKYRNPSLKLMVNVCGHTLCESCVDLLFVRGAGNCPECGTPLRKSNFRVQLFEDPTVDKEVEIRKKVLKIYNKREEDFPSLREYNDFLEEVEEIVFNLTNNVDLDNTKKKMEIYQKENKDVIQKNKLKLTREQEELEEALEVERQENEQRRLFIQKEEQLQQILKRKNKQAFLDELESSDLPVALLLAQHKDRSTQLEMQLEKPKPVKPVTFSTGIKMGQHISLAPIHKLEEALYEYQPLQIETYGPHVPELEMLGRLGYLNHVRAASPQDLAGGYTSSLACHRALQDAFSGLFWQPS
Method: as §1

[32] = test system: KSR1, KSR2; settings: H929 live cell
Method: as §1

[33] = target: PAN3 (Homo sapiens (Human), UniProt Q58A45); settings: H929 live cell
Method: as §1

[34] = target: IKKa (Homo sapiens (Human), UniProt O15111); settings: H929 live cell
Method: as §1

CN(C1CC1)S(=O)(=O)c1ccc(-c2cnc(N)c(-c3ccc4c(c3)CCNC4=O)c2)c(F)c1 [Compound I-28, 4-(6-amino-5-(1-oxo-1,2,3,4-tetrahydroisoquinolin-6-yl)pyridin-3-yl)-N-cyclopropyl-3-fluoro-N-methylbenzenesulfonamide]
inhibition at 10 µM ([1]; read-out: % inhibition (range)): > 90% | inhibition at 10 µM ([1]; read-out: inhibition (10 μM)): 91.1% | inhibition at 10 µM ([2]; read-out: % inhibition (range)): 0% | inhibition at 10 µM ([2]; read-out: inhibition (10 μM)): 11.2% | inhibition at 10 µM ([3]; read-out: % inhibition (range)): 0% | inhibition at 10 µM ([3]; read-out: inhibition (10 μM)): 2.9% | inhibition at 10 µM ([4]; read-out: % inhibition (range)): 0% | inhibition at 10 µM ([4]; read-out: inhibition (10 μM)): 12.7% | % inhibition (range) ([5]; 10 μM): 0.0% | inhibition (10 μM) [5]: −1.6% | inhibition at 10 µM ([6]; read-out: % inhibition (range)): 0% | inhibition at 10 µM ([6]; read-out: inhibition (10 μM)): -4.6% | inhibition at 10 µM ([7]; read-out: % inhibition (range)): 75 to 90% | inhibition at 10 µM ([7]; read-out: inhibition (10 μM)): 89.3% | inhibition at 10 µM ([8]; read-out: % inhibition (range)): 35 to 50% | inhibition at 10 µM ([8]; read-out: inhibition (10 μM)): 38.9% | inhibition at 10 µM ([9]; read-out: % inhibition (range)): 0% | inhibition at 10 µM ([9]; read-out: inhibition (10 μM)): 3.8% | inhibition at 10 µM ([10]; read-out: % inhibition (range)): 0% | inhibition at 10 µM ([10]; read-out: inhibition (10 μM)): 1.4% | inhibition at 10 µM ([11]; read-out: % inhibition (range)): 50 to 75% | inhibition at 10 µM ([11]; read-out: inhibition (10 μM)): 58.9% | inhibition at 10 µM ([12]; read-out: % inhibition (range)): 0% | inhibition at 10 µM ([12]; read-out: inhibition (10 μM)): 14.2% | inhibition at 10 µM ([13]; read-out: % inhibition (range)): 0% | inhibition at 10 µM ([13]; read-out: inhibition (10 μM)): -10.3% | % inhibition (range) ([14]; 10 μM): 0.0% | inhibition (10 μM) [14]: 4.9% | inhibition at 10 µM ([15]; read-out: % inhibition (range)): 0% | inhibition at 10 µM ([15]; read-out: inhibition (10 μM)): 7% | inhibition at 10 µM ([16]; read-out: % inhibition (range)): 0% | inhibition at 10 µM ([16]; read-out: inhibition (10 μM)): -32.1% | inhibition at 10 µM ([17]; read-out: % inhibition (range)): 0% | inhibition at 10 µM ([17]; read-out: inhibition (10 μM)): 11.1% | % inhibition (range) ([18]; 10 μM): 0.0% | inhibition (10 μM) [18]: −13.2% | inhibition at 10 µM ([19]; read-out: % inhibition (range)): 0% | inhibition at 10 µM ([19]; read-out: inhibition (10 μM)): 16% | % inhibition (range) ([20]; 10 μM): 0.0% | inhibition (10 μM) [20]: 0.5% and −0.9% | inhibition at 10 µM [21]: 0% | % inhibition (range) ([22]; 10 μM): 0.0% | inhibition (10 μM) [22]: 13.3% | inhibition at 10 µM ([23]; read-out: % inhibition (range)): 0% | inhibition at 10 µM ([23]; read-out: inhibition (10 μM)): -5.5% | inhibition at 10 µM ([24]; read-out: % inhibition (range)): 0% | inhibition at 10 µM ([24]; read-out: inhibition (10 μM)): -0.8% | inhibition at 10 µM ([25]; read-out: % inhibition (range)): 0% | inhibition at 10 µM ([25]; read-out: inhibition (10 μM)): -14.4% | inhibition at 10 µM ([26]; read-out: % inhibition (range)): 0% | inhibition at 10 µM ([26]; read-out: inhibition (10 μM)): 23.9% | inhibition at 10 µM ([27]; read-out: % inhibition (range)): 0% | inhibition at 10 µM ([27]; read-out: inhibition (10 μM)): 32.7% | inhibition at 10 µM ([28]; read-out: % inhibition (range)): 0% | inhibition at 10 µM ([28]; read-out: inhibition (10 μM)): 11.7% | inhibition at 10 µM ([29]; read-out: % inhibition (range)): > 90% | inhibition at 10 µM ([29]; read-out: inhibition (10 μM)): 93.8% | inhibition at 10 µM ([30]; read-out: % inhibition (range)): 0% | inhibition at 10 µM ([30]; read-out: inhibition (10 μM)): -0.7% | inhibition at 10 µM ([31]; read-out: % inhibition (range)): 0% | inhibition at 10 µM ([31]; read-out: inhibition (10 μM)): 12.3% | % inhibition (range) ([32]; 10 μM): 0.0% | inhibition (10 μM) [32]: −14.5% | inhibition at 10 µM ([33]; read-out: % inhibition (range)): 0% | inhibition at 10 µM ([33]; read-out: inhibition (10 μM)): -45.1% | inhibition at 10 µM ([34]; read-out: % inhibition (range)): 0% | inhibition at 10 µM ([34]; read-out: inhibition (10 μM)): 6.4%
